System: SEM cells
Assay: cell viability relative to DMSO control; higher = less cytotoxic
Conditions: 48 h
Outline: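 Library compounds in DMSO were pin-dosed in an 11-point threefold series (47 μM to 0.79 nM) onto leukemia cells in 1536-well plates (5 μl). Plates held 500 cells/well of NOMO1 or SEM or 1000 cells/well of P12-Ichikawa, each adapted for at least four passages in each medium. Luminescence was read with CellTiter-Glo One after 48 h at 37°C. Viability means the per-plate percentage relative to DMSO wells, using cell-free wells as background.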

[1] = HPLM + 10% dialyzed FBS, 0.000781 µM
[2] = HPLM + 10% dialyzed FBS, 0.00234 µM
[3] = HPLM + 10% dialyzed FBS, 0.00702 µM
[4] = HPLM + 10% dialyzed FBS, 0.0211 µM
[5] = HPLM + 10% dialyzed FBS, 0.0632 µM
[6] = HPLM + 10% dialyzed FBS, 0.19 µM
[7] = HPLM + 10% dialyzed FBS, 0.569 µM
[8] = HPLM + 10% dialyzed FBS, 1.71 µM
[9] = HPLM + 10% dialyzed FBS, 5.12 µM
[10] = HPLM + 10% dialyzed FBS, 15.4 µM
[11] = HPLM + 10% dialyzed FBS, 46.1 µM
[12] = RPMI 5 mM glucose + 10% FBS, 0.000781 µM
[13] = RPMI 5 mM glucose + 10% FBS, 0.00234 µM
[14] = RPMI 5 mM glucose + 10% FBS, 0.00702 µM
[15] = RPMI 5 mM glucose + 10% FBS, 0.0211 µM
[16] = RPMI 5 mM glucose + 10% FBS, 0.0632 µM
[17] = RPMI 5 mM glucose + 10% FBS, 0.19 µM
[18] = RPMI 5 mM glucose + 10% FBS, 0.569 µM
[19] = RPMI 5 mM glucose + 10% FBS, 1.71 µM
[20] = RPMI 5 mM glucose + 10% FBS, 5.12 µM
[21] = RPMI 5 mM glucose + 10% FBS, 15.4 µM
[22] = RPMI 5 mM glucose + 10% FBS, 46.1 µM
[23] = RPMI 5 mM glucose + 10% dialyzed FBS, 0.000781 µM
[24] = RPMI 5 mM glucose + 10% dialyzed FBS, 0.00234 µM
[25] = RPMI 5 mM glucose + 10% dialyzed FBS, 0.00702 µM
[26] = RPMI 5 mM glucose + 10% dialyzed FBS, 0.0211 µM
[27] = RPMI 5 mM glucose + 10% dialyzed FBS, 0.0632 µM
[28] = RPMI 5 mM glucose + 10% dialyzed FBS, 0.19 µM
[29] = RPMI 5 mM glucose + 10% dialyzed FBS, 0.569 µM
[30] = RPMI 5 mM glucose + 10% dialyzed FBS, 1.71 µM
[31] = RPMI 5 mM glucose + 10% dialyzed FBS, 5.12 µM
[32] = RPMI 5 mM glucose + 10% dialyzed FBS, 15.4 µM
[33] = RPMI 5 mM glucose + 10% dialyzed FBS, 46.1 µM

| Compound | cell viability [1] | cell viability [2] | cell viability [3] | cell viability [4] | cell viability [5] | cell viability [6] | cell viability [7] | cell viability [8] | cell viability [9] | cell viability [10] | cell viability [11] | cell viability [12] | cell viability [13] | cell viability [14] | cell viability [15] | cell viability [16] | cell viability [17] | cell viability [18] | cell viability [19] | cell viability [20] | cell viability [21] | cell viability [22] | cell viability [23] | cell viability [24] | cell viability [25] | cell viability [26] | cell viability [27] | cell viability [28] | cell viability [29] | cell viability [30] | cell viability [31] | cell viability [32] | cell viability [33] |
| --- | --- | --- | --- | --- | --- | --- | --- | --- | --- | --- | --- | --- | --- | --- | --- | --- | --- | --- | --- | --- | --- | --- | --- | --- | --- | --- | --- | --- | --- | --- | --- | --- | --- |
| COC1=CC=CC2=C1C(=NC(=N2)C3=CC=CS3)NN4C(=O)\C=C(C)/C4=O | 86.8% | 96.3% | 101% | 87.5% | 72.4% | 69.1% | 42.5% | 29.7% | 11.3% | 2.5% | 2.94% | 90.3% | 99% | 93.5% | 92.2% | 81.9% | 75.5% | 59.5% | 36% | 5.68% | 1.13% | 2.39% | 87.3% | 87.2% | 88.5% | 78.1% | 76.3% | 83.1% | 57.4% | 41.3% | 5.19% | 1.14% | 2.21% |
| C=C(C)[C@@H]1CC[C@]2(C(=O)O)CC[C@]3(C)[C@H](CC[C@@H]4[C@@]5(C)CC[C@H](O)C(C)(C)[C@@H]5CC[C@]43C)[C@@H]12 | – | – | – | – | – | – | – | – | – | – | – | 115% | 116% | 134% | 129% | 140% | 52.4% | 128% | 123% | 42.7% | 112% | 107% | – | – | – | – | – | – | – | – | – | – | – |
| CC(C)[C@@H](N(CCCN)C(=O)C1=CC=C(C)C=C1)C/2=N/C3=CC(=CC=C3C(=O)N2CC4=CC=CC=C4)Cl | 84.5% | 21% | 20.5% | 19.5% | 16% | 20.4% | 19.5% | 20.2% | 21.9% | 21.2% | 21.9% | 103% | 16.5% | 14.8% | 14% | 15.9% | 15% | 12.3% | 13.7% | 16.8% | 16.2% | 11.6% | 80% | 19.8% | 16.2% | 15.7% | 16.4% | 14.4% | 17.5% | 14.8% | 16.4% | 17.2% | 13.2% |
| CCCCCCCCCCCCCCCCCCCCCCO | 104% | 95% | 119% | 116% | 110% | 110% | 111% | 127% | 87.8% | 123% | 132% | 122% | 113% | 135% | 133% | 129% | 146% | 153% | 156% | 98.4% | 138% | 155% | 102% | 98.1% | 120% | 123% | 118% | 115% | 118% | 132% | 87% | 116% | 138% |
| C/C=C(/C)C(=O)O[C@H]1C(C)=C2[C@H]([C@@H]1OC(=O)CCCCCCC)[C@@](C)(OC(C)=O)C[C@H](OC(=O)CCC)[C@@]1(O)[C@H]2OC(=O)[C@@]1(C)O | 95% | 112% | 111% | 101% | 57% | 13.1% | 8.77% | 7.59% | 7.07% | 6.17% | 6.69% | 105% | 112% | 113% | 85.7% | 23.8% | 10.4% | 6.8% | 6.65% | 7.69% | 5.62% | 6.01% | 107% | 138% | 114% | 82.7% | 33.8% | 9.51% | 7.63% | 5.08% | 4.94% | 3.37% | 3.69% |
| OC1=C(O)C2=C(\C=C/C(=O)O2)C=C1 | 82.7% | 94.1% | 90.2% | 101% | 65.4% | 102% | 98.4% | 103% | 99.1% | 93.9% | 9.29% | 91.8% | 106% | 98.1% | 91.6% | 70% | 91.8% | 98.3% | 102% | 102% | 93.5% | 7.55% | 83.2% | 101% | 98.9% | 102% | 78.8% | 101% | 112% | 101% | 90.4% | 90.3% | 9.04% |
| Cc1c(CCOc2ccc(C(=O)O)cc2)c2cc(Cl)ccc2n1C(c1ccccc1)c1ccccc1 | 112% | 118% | 104% | 113% | 109% | 105% | 108% | 114% | 105% | 108% | 79.3% | 110% | 108% | 104% | 118% | 94.3% | 104% | 94.9% | 102% | 106% | 106% | 92.7% | 114% | 110% | 97.1% | 109% | 95.9% | 109% | 111% | 104% | 107% | 95.3% | 92.5% |

Source: the supplement of paper PMC11451515
